Reference: ChEMBL document CHEMBL3272271, “Folate antagonists. 13. 2,4-Diamino-6-](alpha,alpha,alpha-trifluoro-m-tolyl)thio]quinazoline and related 2,4-diamino-6-[(phenyl- and naphthyl)thio]quinazolines, a unique class of antimetabolites with extraordinary antimalarial and antibacterial effects” (J Med Chem, 1978)
In brackets after ≈: the same amount, converted by molar mass. Activity calls are given as the source filed them. No cut-off for these calls is given here.

Tests used:
[1] = system: Plasmodium gallinaceum; experiment: Antimalarial activity against trophozoite-induced Plasmodium gallinaceum infected in white leghorn chicken assessed as disease cure from parasite infection at 20 mg/kg, sc administered 72 hrs after infection; format: functional, organism-based; parameters: dose 20 mg/kg
[2] = system: Plasmodium gallinaceum; experiment: Antimalarial activity against trophozoite-induced Plasmodium gallinaceum infected in white leghorn chicken assessed as disease cure from parasite infection at 10 mg/kg, sc administered 72 hrs after infection; format: functional, organism-based; parameters: dose 10 mg/kg
[3] = system: Plasmodium falciparum; experiment: Antimalarial activity against chloroquine-susceptible, pyrimethamine-resistant Plasmodium falciparum Malayan Camp infected in Aotus trivirgatus owl monkey model assessed as cure from parasite infection at >2.5 mg/kg, po qd for 7 days relative to control; format: functional
[4] = system: Plasmodium falciparum; experiment: Antimalarial activity against pyrimethamine-sensitive Plasmodium falciparum Vietnam Oak Knoll infected in Aotus trivirgatus owl monkey model assessed as cure from parasite infection at 0.098 to 1.56 mg/kg, po qd for 7 days relative to control; format: functional; conditions: dose mg/kg 0.098-1.56
[5] = system: Plasmodium falciparum; experiment: Antimalarial activity against pyrimethamine-sensitive Plasmodium falciparum Vietnam Oak Knoll infected in Aotus trivirgatus owl monkey model assessed as cure from parasite infection at 0.6 mg/kg, po qd for 7 days relative to control; format: functional
[6] = system: Enterococcus faecalis; experiment: Antibacterial activity against Streptococcus faecalis MGH-2 by gradient plate test; format: functional
[7] = system: Staphylococcus aureus; experiment: Antibacterial activity against Staphylococcus aureus UC-96 by gradient plate test; format: functional
[8] = system: Staphylococcus aureus; experiment: Antibacterial activity against drug-resistant Staphylococcus aureus S18713 by gradient plate test; format: functional
[9] = system: Pseudomonas aeruginosa; experiment: Antibacterial activity against Pseudomonas aeruginosa 28 by gradient plate test; format: functional
[10] = system: Escherichia coli; experiment: Antibacterial activity against Escherichia coli Vogel by gradient plate test; format: functional
[11] = system: Shigella sonnei; experiment: Antibacterial activity against Shigella sonnei C-10 by gradient plate test; format: functional
[12] = system: Plasmodium gallinaceum; experiment: Antimalarial activity against sporozoite-induced Plasmodium gallinaceum infected in white leghorn chicken assessed as disease cure from parasite infection at 480 mg/kg, sc administered 72 hrs after infection; format: functional, organism-based; parameters: dose 480 mg/kg
[13] = system: Plasmodium gallinaceum; experiment: Antimalarial activity against sporozoite-induced Plasmodium gallinaceum infected in white leghorn chicken assessed as disease cure from parasite infection at 240 mg/kg, sc administered 72 hrs after infection; format: functional, organism-based; parameters: dose 240 mg/kg
[14] = system: Plasmodium gallinaceum; experiment: Antimalarial activity against sporozoite-induced Plasmodium gallinaceum infected in white leghorn chicken assessed as disease cure from parasite infection at 120 mg/kg, sc administered 72 hrs after infection; format: functional, organism-based; parameters: dose 120 mg/kg
[15] = system: Plasmodium gallinaceum; experiment: Antimalarial activity against sporozoite-induced Plasmodium gallinaceum infected in white leghorn chicken assessed as disease cure from parasite infection at 60 mg/kg, sc administered 72 hrs after infection; format: functional, organism-based; parameters: dose 60 mg/kg
[16] = system: Plasmodium gallinaceum; experiment: Antimalarial activity against sporozoite-induced Plasmodium gallinaceum infected in white leghorn chicken assessed as disease cure from parasite infection at 30 mg/kg, sc administered 72 hrs after infection; format: functional, organism-based; parameters: dose 30 mg/kg
[17] = system: Plasmodium gallinaceum; experiment: Antimalarial activity against sporozoite-induced Plasmodium gallinaceum infected in white leghorn chicken assessed as disease cure from parasite infection at 15 mg/kg, sc administered 72 hrs after infection; format: functional, organism-based; parameters: dose 15 mg/kg
[18] = system: Plasmodium berghei; experiment: Antimalarial activity against Plasmodium berghei infected in mouse assessed as increase in mean survival days of host at 10 mg/kg, sc administered 72 hrs after infection relative to control; format: functional; conditions: route subcutaneous
[19] = system: Plasmodium berghei; experiment: Antimalarial activity against chloroquine-resistant Plasmodium berghei assessed as drug resistance; format: functional, organism-based
[20] = system: Plasmodium berghei; experiment: Antimalarial activity against cycloguanil-resistant Plasmodium berghei assessed as drug resistance; format: functional, organism-based
[21] = system: Plasmodium falciparum; experiment: Antimalarial activity against chloroquine-susceptible, pyrimethamine-resistant Plasmodium falciparum Malayan Camp infected in Aotus trivirgatus owl monkey model assessed as cure from parasite infection at 0.39 to 5 mg/kg, po qd for 7 days relative to control; format: functional; conditions: dose mg/kg 0.39-5
[22] = system: Plasmodium berghei; experiment: Antimalarial activity against Plasmodium berghei infected in mouse assessed as increase in mean survival days of host at 5 mg/kg, sc administered 72 hrs after infection relative to control; format: functional; conditions: route subcutaneous
[23] = system: Plasmodium berghei; experiment: Antimalarial activity against Plasmodium berghei infected in mouse assessed as increase in mean survival days of host at 2.5 mg/kg, sc administered 72 hrs after infection relative to control; format: functional; conditions: route subcutaneous
[24] = system: Plasmodium berghei; experiment: Antimalarial activity against Plasmodium berghei infected in mouse assessed as increase in mean survival days of host at 1.25 mg/kg, sc administered 72 hrs after infection relative to control; format: functional; conditions: route subcutaneous
[25] = system: Plasmodium berghei; experiment: Antimalarial activity against Plasmodium berghei infected in mouse assessed as disease cure from parasite infection at 640 mg/kg, sc administered 72 hrs after infection; format: functional, organism-based; parameters: dose 640 mg/kg
[26] = system: Plasmodium berghei; experiment: Antimalarial activity against Plasmodium berghei infected in mouse assessed as disease cure from parasite infection at 320 mg/kg, sc administered 72 hrs after infection; format: functional, organism-based; parameters: dose 320 mg/kg
[27] = system: Plasmodium berghei; experiment: Antimalarial activity against Plasmodium berghei infected in mouse assessed as disease cure from parasite infection at 160 mg/kg, sc administered 72 hrs after infection; format: functional, organism-based; parameters: dose 160 mg/kg
[28] = system: Plasmodium berghei; experiment: Antimalarial activity against Plasmodium berghei infected in mouse assessed as disease cure from parasite infection at 80 mg/kg, sc administered 72 hrs after infection; format: functional, organism-based; parameters: dose 80 mg/kg
[29] = system: Plasmodium berghei; experiment: Antimalarial activity against Plasmodium berghei infected in mouse assessed as disease cure from parasite infection at 40 mg/kg, sc administered 72 hrs after infection; format: functional, organism-based; parameters: dose 40 mg/kg
[30] = system: Plasmodium berghei; experiment: Antimalarial activity against Plasmodium berghei infected in mouse assessed as disease cure from parasite infection at 20 mg/kg, sc administered 72 hrs after infection; format: functional, organism-based; parameters: dose 20 mg/kg
[31] = system: Plasmodium gallinaceum; experiment: Antimalarial activity against trophozoite-induced Plasmodium gallinaceum infected in white leghorn chicken assessed as increase in mean survival days of host at 5 mg/kg, sc administered 72 hrs after infection relative to control; format: functional; conditions: route subcutaneous
[32] = system: Plasmodium gallinaceum; experiment: Antimalarial activity against trophozoite-induced Plasmodium gallinaceum infected in white leghorn chicken assessed as increase in mean survival days of host at 2.5 mg/kg, sc administered 72 hrs after infection relative to control; format: functional; conditions: route subcutaneous
[33] = system: Plasmodium gallinaceum; experiment: Antimalarial activity against trophozoite-induced Plasmodium gallinaceum infected in white leghorn chicken assessed as increase in mean survival days of host at 1.25 mg/kg, sc administered 72 hrs after infection relative to control; format: functional; conditions: route subcutaneous
[34] = system: Plasmodium gallinaceum; experiment: Antimalarial activity against trophozoite-induced Plasmodium gallinaceum infected in white leghorn chicken assessed as increase in mean survival days of host at 0.63 mg/kg, sc administered 72 hrs after infection relative to control; format: functional; conditions: route subcutaneous
[35] = system: Mycobacterium tuberculosis; experiment: Antibacterial activity against Mycobacterium tuberculosis H37Ra by gradient plate test; format: functional
[36] = system: Plasmodium berghei; experiment: Antimalarial activity against Plasmodium berghei infected in mouse assessed as increase in mean survival days of host at 20 mg/kg, sc administered 72 hrs after infection relative to control; format: functional; conditions: route subcutaneous
[37] = system: Plasmodium berghei; experiment: Antimalarial activity against Plasmodium berghei infected in mouse assessed as disease cure from parasite infection at 10 mg/kg, sc administered 72 hrs after infection; format: functional, organism-based; parameters: dose 10 mg/kg
[38] = system: Plasmodium berghei; experiment: Antimalarial activity against Plasmodium berghei infected in mouse assessed as disease cure from parasite infection at 5 mg/kg, sc administered 72 hrs after infection; format: functional, organism-based; parameters: dose 5 mg/kg

Compound	MIC [6] [µg/mL]	MIC [7] [µg/mL]	MIC [8] [µg/mL]	MIC [9] [µg/mL]	MIC [10] [µg/mL]	MIC [11] [µg/mL]	MST [18] [days]	MST [22] [days]	MST [23] [days]	MST [24] [days]	Activity [25]	Activity [26]	Activity [27]	Activity [28]	Activity [29]	Activity [30]	other results
CN(C)c1ccc(Sc2ccc3nc(N)nc(N)c3c2)cc1	< 0.25	< 0.25	< 0.25	> 25	1.5 (≈ 4.82 µM)	10 (≈ 32.1 µM)	10.3	9.7	5.5	2.5	Active	Active	Active	Active	Active	Active	Activity [1]: Active; Activity [2]: Active; Activity [3]: >50%; Activity [4]: >50%; Activity [5]: >50%; Activity [12]: Active; Activity [13]: Active; Activity [14]: Active; Activity [15]: Active; Activity [16]: Active; Activity [17]: Active; Activity [19]: inactive; Activity [20]: Active; Activity [21]: >50%; MST [31]: 19.8 days; MST [32]: 12.6 days; MST [33]: 10.4 days; MST [34]: 6.6 days
Nc1nc(N)c2c(Cl)c(Sc3ccc4ccccc4c3)ccc2n1	< 0.25	1.5 (≈ 4.25 µM)	5 (≈ 14.2 µM)	> 25	10 (≈ 28.3 µM)	> 25	15.9	12.7	7.9	5.5	Active	Active	Active	Active	Active	Active	MIC [35]: 10 µg/mL (≈ 28.3 µM); MST [36]: 15.9 days; Activity [37]: Active; Activity [38]: Active
